Laboratory results published in the supplement of paper PMC12463676, “Small-molecule dissolution of stress granules by redox modulation benefits ALS models” (Nature Chemical Biology, 2025).

What was measured:
lipoamide = compound: NC(=O)CCCCC1CCSS1 [lipoamide]; assay: thermal stability z-score vs DMSO; higher = more thermally stabilized by treatment; conditions: HeLa, lipoamide concentration 100 µM
Protocol: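 Cellular thermal proteome profiling in HeLa cells. Cells were treated with 100 µM lipoamide for 1 h, with or without 1 mM arsenate for a further 1 h, then heated to ten temperatures (37-66.3 °C), and soluble protein was quantified by TMT mass spectrometry relative to 0.1% DMSO controls. The thermal stability score (sum of log2 fold changes minus the abundance score) was transformed to a z-score; mean of n = 3 experiments.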

potassium arsenate = compound: O=[As]([O-])(O)O.[K+] [potassium arsenate]; assay: as above; conditions: HeLa; arsenate concentration 1 mM
Protocol: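 Cellular thermal proteome profiling in HeLa cells treated with 1 mM arsenate for 1 h (DMSO pretreatment), heated to ten temperatures (37-66.3 °C). Soluble protein was quantified by TMT mass spectrometry relative to DMSO controls; the thermal stability score was transformed to a z-score; mean of n = 3 experiments.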

[1] = arsenate co-treatment: 1 mM arsenate 1 h
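Also: each temperature applied for 3 min, abundance score taken as mean log2 fold change at the two lowest temperatures, z-score obtained by mean subtraction and division by SD.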

Chain of UniProt Q9Y5L0 (Q9Y5L0 whole entry): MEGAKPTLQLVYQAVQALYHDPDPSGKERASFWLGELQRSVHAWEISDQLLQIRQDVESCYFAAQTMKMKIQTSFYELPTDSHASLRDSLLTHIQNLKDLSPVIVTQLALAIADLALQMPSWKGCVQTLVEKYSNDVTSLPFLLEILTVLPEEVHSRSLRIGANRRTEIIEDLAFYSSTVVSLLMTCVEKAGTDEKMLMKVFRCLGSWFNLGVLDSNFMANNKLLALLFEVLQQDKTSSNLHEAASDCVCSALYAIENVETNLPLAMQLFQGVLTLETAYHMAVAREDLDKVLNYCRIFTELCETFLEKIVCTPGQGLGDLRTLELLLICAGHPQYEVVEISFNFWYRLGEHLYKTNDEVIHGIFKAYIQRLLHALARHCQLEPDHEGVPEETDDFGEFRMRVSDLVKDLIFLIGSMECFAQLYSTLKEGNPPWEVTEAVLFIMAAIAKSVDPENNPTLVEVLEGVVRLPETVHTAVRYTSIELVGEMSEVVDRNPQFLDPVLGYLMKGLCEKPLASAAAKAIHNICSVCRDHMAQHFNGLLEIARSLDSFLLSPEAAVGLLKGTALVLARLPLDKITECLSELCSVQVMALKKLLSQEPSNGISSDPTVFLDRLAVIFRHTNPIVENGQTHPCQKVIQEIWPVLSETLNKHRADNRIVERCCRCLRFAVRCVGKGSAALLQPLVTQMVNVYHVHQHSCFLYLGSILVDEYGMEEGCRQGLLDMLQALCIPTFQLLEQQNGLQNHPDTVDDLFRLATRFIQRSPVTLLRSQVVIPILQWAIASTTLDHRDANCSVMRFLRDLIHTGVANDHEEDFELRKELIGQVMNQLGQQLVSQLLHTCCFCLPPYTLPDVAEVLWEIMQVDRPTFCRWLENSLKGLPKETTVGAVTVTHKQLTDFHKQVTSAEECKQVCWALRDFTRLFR
Chain of UniProt Q7Z4H3 (Q7Z4H3 whole entry): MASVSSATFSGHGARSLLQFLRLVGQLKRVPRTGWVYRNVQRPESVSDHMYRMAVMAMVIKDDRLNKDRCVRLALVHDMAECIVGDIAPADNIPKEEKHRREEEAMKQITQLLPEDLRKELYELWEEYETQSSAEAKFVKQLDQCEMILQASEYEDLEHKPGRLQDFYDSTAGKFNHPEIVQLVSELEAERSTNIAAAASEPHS
Chain of UniProt Q86XL3 (Q86XL3 whole entry): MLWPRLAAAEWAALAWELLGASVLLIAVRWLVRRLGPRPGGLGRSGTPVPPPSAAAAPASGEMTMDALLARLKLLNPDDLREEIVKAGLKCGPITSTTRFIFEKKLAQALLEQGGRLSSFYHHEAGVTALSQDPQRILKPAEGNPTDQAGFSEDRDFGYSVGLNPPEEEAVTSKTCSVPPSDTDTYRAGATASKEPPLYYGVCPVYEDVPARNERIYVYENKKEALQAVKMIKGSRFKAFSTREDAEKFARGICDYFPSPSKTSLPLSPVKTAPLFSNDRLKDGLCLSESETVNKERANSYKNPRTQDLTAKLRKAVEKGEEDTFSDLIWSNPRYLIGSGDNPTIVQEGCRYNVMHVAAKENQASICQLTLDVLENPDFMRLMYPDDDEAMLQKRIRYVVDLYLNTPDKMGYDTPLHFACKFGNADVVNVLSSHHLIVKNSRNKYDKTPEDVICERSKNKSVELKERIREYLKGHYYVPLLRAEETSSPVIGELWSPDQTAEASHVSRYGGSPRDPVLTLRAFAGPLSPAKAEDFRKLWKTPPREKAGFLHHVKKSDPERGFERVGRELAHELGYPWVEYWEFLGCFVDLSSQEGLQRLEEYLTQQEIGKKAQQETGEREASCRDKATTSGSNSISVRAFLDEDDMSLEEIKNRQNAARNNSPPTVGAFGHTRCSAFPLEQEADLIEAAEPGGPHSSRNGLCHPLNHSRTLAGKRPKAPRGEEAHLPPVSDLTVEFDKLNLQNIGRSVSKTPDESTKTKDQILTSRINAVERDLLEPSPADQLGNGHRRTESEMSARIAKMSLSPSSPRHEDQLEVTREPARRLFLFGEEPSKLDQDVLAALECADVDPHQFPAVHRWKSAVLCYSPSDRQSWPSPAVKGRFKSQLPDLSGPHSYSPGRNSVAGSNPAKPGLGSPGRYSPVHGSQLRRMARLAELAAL
Chain of UniProt O15173 (O15173 whole entry): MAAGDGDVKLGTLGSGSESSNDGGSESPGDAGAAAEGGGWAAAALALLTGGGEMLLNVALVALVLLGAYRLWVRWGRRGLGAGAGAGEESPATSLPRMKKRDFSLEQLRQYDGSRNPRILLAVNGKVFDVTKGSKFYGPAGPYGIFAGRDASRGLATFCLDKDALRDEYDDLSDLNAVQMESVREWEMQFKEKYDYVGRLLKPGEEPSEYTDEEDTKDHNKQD
Chain of UniProt Q8IYR2 (Q8IYR2 whole entry): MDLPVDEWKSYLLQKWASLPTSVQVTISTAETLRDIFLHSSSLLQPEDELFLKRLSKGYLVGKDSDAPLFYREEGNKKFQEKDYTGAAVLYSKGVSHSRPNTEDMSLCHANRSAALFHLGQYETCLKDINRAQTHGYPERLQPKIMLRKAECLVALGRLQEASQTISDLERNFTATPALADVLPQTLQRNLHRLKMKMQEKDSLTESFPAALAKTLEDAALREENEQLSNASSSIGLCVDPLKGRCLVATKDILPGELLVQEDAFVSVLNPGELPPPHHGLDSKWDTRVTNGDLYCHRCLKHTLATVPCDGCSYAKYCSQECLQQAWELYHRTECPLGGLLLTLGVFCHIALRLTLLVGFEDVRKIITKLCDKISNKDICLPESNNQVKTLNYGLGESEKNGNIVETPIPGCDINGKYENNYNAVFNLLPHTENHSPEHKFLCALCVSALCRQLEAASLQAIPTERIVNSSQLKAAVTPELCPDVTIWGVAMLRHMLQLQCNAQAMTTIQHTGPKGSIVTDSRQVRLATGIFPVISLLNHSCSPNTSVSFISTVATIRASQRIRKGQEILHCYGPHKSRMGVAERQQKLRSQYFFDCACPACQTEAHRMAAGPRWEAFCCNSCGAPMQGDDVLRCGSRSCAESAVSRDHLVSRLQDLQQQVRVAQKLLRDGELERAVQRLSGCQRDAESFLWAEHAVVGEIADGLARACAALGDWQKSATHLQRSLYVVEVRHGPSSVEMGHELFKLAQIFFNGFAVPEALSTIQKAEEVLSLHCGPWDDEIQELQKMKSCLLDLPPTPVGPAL
Chain of UniProt P18206 (P18206 whole entry): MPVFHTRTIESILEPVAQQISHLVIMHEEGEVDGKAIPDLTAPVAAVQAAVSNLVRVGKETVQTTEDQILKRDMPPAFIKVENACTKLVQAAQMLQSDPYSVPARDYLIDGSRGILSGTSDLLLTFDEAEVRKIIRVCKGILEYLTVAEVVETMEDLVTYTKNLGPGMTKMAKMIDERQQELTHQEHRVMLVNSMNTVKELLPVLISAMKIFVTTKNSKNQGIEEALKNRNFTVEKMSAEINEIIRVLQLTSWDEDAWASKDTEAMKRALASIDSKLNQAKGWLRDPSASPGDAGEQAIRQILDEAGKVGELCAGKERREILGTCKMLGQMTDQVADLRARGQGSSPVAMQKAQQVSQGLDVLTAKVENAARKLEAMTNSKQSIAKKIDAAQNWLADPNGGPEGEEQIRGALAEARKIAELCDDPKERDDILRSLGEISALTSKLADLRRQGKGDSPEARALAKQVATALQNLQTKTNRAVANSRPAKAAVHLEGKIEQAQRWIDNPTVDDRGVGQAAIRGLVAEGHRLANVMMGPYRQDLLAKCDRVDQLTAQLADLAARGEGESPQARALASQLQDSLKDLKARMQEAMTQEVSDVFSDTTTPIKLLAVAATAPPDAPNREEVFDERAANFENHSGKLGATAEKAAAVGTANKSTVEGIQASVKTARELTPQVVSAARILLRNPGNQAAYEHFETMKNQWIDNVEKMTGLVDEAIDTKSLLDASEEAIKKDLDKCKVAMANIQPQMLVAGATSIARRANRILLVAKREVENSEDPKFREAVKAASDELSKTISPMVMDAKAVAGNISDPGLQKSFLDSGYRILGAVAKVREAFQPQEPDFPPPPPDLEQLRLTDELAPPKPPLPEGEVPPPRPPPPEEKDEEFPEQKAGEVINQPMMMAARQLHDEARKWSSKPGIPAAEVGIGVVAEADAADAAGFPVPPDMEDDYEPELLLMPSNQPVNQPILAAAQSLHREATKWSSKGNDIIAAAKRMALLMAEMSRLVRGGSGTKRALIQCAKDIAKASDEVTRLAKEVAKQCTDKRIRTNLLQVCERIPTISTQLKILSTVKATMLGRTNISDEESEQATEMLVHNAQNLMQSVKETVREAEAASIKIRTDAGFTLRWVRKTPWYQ
Chain of UniProt Q8IXQ3 (Q8IXQ3 whole entry): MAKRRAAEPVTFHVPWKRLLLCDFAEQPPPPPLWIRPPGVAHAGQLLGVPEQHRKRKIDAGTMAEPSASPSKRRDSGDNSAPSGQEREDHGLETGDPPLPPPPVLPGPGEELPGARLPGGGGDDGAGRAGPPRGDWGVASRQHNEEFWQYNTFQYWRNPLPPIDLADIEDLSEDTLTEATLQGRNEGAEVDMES
Chain of UniProt Q6P9B6 (Q6P9B6 whole entry): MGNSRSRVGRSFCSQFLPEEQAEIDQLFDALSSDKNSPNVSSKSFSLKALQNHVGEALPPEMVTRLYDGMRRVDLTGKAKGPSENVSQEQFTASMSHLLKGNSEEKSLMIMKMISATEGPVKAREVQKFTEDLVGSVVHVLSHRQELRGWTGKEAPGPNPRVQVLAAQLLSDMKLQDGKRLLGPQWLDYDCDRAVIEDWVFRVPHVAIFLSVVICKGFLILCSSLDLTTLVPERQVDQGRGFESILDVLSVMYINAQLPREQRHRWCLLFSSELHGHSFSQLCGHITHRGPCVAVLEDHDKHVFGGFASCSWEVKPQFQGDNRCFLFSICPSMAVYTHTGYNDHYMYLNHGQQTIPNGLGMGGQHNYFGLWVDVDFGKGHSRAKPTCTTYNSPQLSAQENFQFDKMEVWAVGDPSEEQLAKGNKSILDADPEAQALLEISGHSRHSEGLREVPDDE
Chain of UniProt P56381 (P56381 whole entry): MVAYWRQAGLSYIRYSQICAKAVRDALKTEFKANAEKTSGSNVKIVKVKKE

Target	thermal stability z-score (lipoamide; [1])	thermal stability z-score (lipoamide; arsenate co-treatment: none)	thermal stability z-score (potassium arsenate)
GDAP1 (UniProt Q8TB36)	-0.141	-0.313	-0.354
SUCLG1 (UniProt P53597)	0.0617	0.192	0.206
FAF2 (UniProt Q96CS3)	-0.435	-0.684	-0.262
CCDC91 (UniProt Q7Z6B0)	0.136	0.181	1.21
SCO1 (UniProt O75880)	-2.79	-2.65	3.03
TOMM34 (UniProt Q15785)	0.52	0.356	-0.0204
PPME1 (UniProt Q9Y570)	0.126	0.00998	-1.09
SSSCA1 (UniProt O60232)	1.33	1.12	0.0653
CDC73 (UniProt Q6P1J9)	0.521	0.541	0.234
SMYD4 (UniProt Q8IYR2)	-0.0691	-0.00905	-0.0713
MID1 (UniProt O15344)	-0.525	-0.224	-0.963
ABCF1 (UniProt Q8NE71)	-0.384	-0.353	1.14
TRMT61A (UniProt Q96FX7)	1.14	-1.08	-0.0703
SEC23B (UniProt Q15437)	1.19	0.766	0.645
ANKRD52 (UniProt Q8NB46)	-0.69	-0.0975	-0.372
FKBP10 (UniProt Q96AY3)	-3.58	-2.95	0.321
BRD4 (UniProt O60885)	0.496	0.462	-0.724
C11ORF68 (UniProt Q9H3H3)	-0.438	-0.551	0.538
FAM120B (UniProt Q96EK7)	0.0177	-0.0542	-0.081
NXF1 (UniProt Q9UBU9)	0.0906	0.0765	-0.127
FHL1 (UniProt Q13642)	0.358	0.294	-0.17
ARL6IP5 (UniProt O75915)	-0.0796	0.285	-0.256
C19ORF70|MIC13	0.265	0.131	0.22
MAPRE1 (UniProt Q15691)	0.796	0.705	0.154

Target	thermal stability z-score (lipoamide; [1])	thermal stability z-score (lipoamide; arsenate co-treatment: none)	thermal stability z-score (potassium arsenate)
ANKLE2 (UniProt Q86XL3)	-1.08	-0.166	0.76
DHX32 (UniProt Q7L7V1)	-1.73	-1.67	0.629
PSEN2 (UniProt P49810)	-0.815	-1.79	-1.19
NAA25 (UniProt Q14CX7)	0.177	0.0532	-0.0259
PIGK (UniProt Q92643)	-1.32	-1.34	-0.123
MYO1E (UniProt Q12965)	0.918	0.582	-0.8
LACTB (UniProt P83111)	-0.437	-0.129	-0.604
TRIM5 (UniProt Q9C035)	0.224	0.183	0.259
RPS5 (UniProt P46782)	0.607	0.458	-0.546
VCL (UniProt P18206)	-0.353	-0.286	-2.02
TNPO3 (UniProt Q9Y5L0)	-0.654	-0.367	-0.107
PAFAH2 (UniProt Q99487)	0.543	-0.499	-0.363
RPS3 (UniProt P23396)	0.354	0.207	-0.627
SRR (UniProt Q9GZT4)	-0.139	-0.118	-0.393
ATP5E (UniProt P56381)	0.582	0.508	0.00933
RPL7L1 (UniProt Q6DKI1)	0.203	0.0421	-0.203
CD276 (UniProt Q5ZPR3)	0.196	-0.174	0.000316
C9ORF40 (UniProt Q8IXQ3)	-0.129	0.33	0.0372
EPN1 (UniProt Q9Y6I3)	0.241	0.408	0.491
MRPL50 (UniProt Q8N5N7)	1.2	0.662	1.42
RING1 (UniProt Q06587)	-0.0364	0.0555	-0.0985
PHGDH (UniProt O43175)	1.08	0.761	-2.42
RPLP0 (UniProt P05388)	1.08	0.341	-0.4
PTER (UniProt Q96BW5)	-0.116	-0.966	-0.311

Target	thermal stability z-score (lipoamide; [1])	thermal stability z-score (lipoamide; arsenate co-treatment: none)	thermal stability z-score (potassium arsenate)
PGRMC2 (UniProt O15173)	0.682	0.466	0.479
NDUFA8 (UniProt P51970)	-0.418	-0.772	0.0194
EP300 (UniProt Q09472)	-0.212	0.127	-0.866
DENND4B (UniProt O75064)	0.182	-0.0196	0.288
TLDC1 (UniProt Q6P9B6)	-0.455	-0.204	-0.238
UTP20 (UniProt O75691)	-0.113	-0.168	-0.134
RBFOX2 (UniProt O43251)	-0.112	0.314	0.171
HDDC2 (UniProt Q7Z4H3)	-0.204	-0.127	-0.419
HPDL (UniProt Q96IR7)	1.09	0.497	1.13
USP19 (UniProt O94966)	0.774	-0.193	-0.0515
RBM47	0.133	-0.661	-0.629
HSP90AB4P (UniProt Q58FF6)	0.361	-0.21	-0.635
PLCG1 (UniProt P19174)	0.538	0.247	0.623
RPL23A (UniProt P62750)	-0.321	-0.341	-1.49
USP15 (UniProt Q9Y4E8)	0.00184	-0.0791	0.014
VPS16 (UniProt Q9H269)	-0.305	0.0437	1.02
ASCC3 (UniProt Q8N3C0)	-0.289	-0.167	-0.277
PEX11B (UniProt O96011)	-0.443	-0.349	-0.497
PTPN9 (UniProt P43378)	-0.0496	0.0634	0.0393
SLC35B2 (UniProt Q8TB61)	-0.113	-0.134	0.579
FAM114A2 (UniProt Q9NRY5)	-0.354	-0.328	0.222
RSL24D1 (UniProt Q9UHA3)	1.21	0.133	-3.91
UBA1 (UniProt P22314)	-0.526	0.213	-0.439
